Tests used:
ragweed [1] = test: Test A postemergence; type: in vivo, Ambrosia artemisiifolia; settings: postemergence, 10 days; for Ragweed plant response rating: 125 g ai/ha, 0 to 100 scale, 0 no effect, 100 complete control; for Plant response rating, Ragweed: 500 g ai/ha, visual injury, 0 to 100 scale (0 no effect, 100 complete control)
In short: (§1)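 Seeds in loam–sand blend received a directed preemergence soil spray of compound in non-phytotoxic solvent with surfactant; postemergence plants (2–10 cm, one- to two-leaf stage) were sprayed with the same formulation. After 10 days in greenhouse, injury was rated visually versus untreated controls, 0 (no effect) to 100 (complete control).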

blackgrass [2] = test: Test A preemergence; type: in vivo, Alopecurus myosuroides
In short: as §1

foxtail, giant [3] = test: Test A postemergence; type: in vivo, Setaria faberi; settings: postemergence, 10 days; for Foxtail, Giant plant response rating: 125 g ai/ha, 0 to 100 scale, 0 no effect, 100 complete control; for Plant response rating, Foxtail, Giant: 500 g ai/ha, visual injury, 0 to 100 scale (0 no effect, 100 complete control)
In short: as §1

corn [4] = test: Test A postemergence; type: in vivo, Zea mays; settings: postemergence, 10 days; for Corn plant response rating: 125 g ai/ha, 0 to 100 scale, 0 no effect, 100 complete control; for Plant response rating, Corn: 500 g ai/ha, visual injury, 0 to 100 scale (0 no effect, 100 complete control)
In short: as §1

oat, wild [5] = test: Test A postemergence; type: in vivo, Avena fatua; settings: postemergence, 10 days; for Oat, Wild plant response rating: 125 g ai/ha, 0 to 100 scale, 0 no effect, 100 complete control; for Plant response rating, Oat, Wild: 500 g ai/ha, visual injury, 0 to 100 scale (0 no effect, 100 complete control)
In short: as §1

soybean [6] = test: Test A preemergence; type: in vivo, Glycine max
In short: as §1

soybean [7] = test: Test A postemergence; type: in vivo, Glycine max; settings: postemergence, 10 days; for Soybean plant response rating: 125 g ai/ha, 0 to 100 scale, 0 no effect, 100 complete control; for Plant response rating, Soybean: 500 g ai/ha, visual injury, 0 to 100 scale (0 no effect, 100 complete control)
In short: as §1

wheat [8] = test: Test A preemergence; type: in vivo, Triticum aestivum
In short: as §1

ragweed [9] = test: Test A preemergence; type: in vivo, Ambrosia artemisiifolia
In short: as §1

ryegrass, Italian [10] = test: Test A postemergence; type: in vivo, Lolium multiflorum; settings: postemergence, 10 days; for Ryegrass, Italian plant response rating: 125 g ai/ha, 0 to 100 scale, 0 no effect, 100 complete control; for Plant response rating, Ryegrass, Italian: 500 g ai/ha, visual injury, 0 to 100 scale (0 no effect, 100 complete control)
In short: as §1

sedge, umbrella = test: Test B flooded paddy test; type: in vivo, Cyperus difformis; settings: 250 g ai/ha, Flood, 13 days, 0 to 100 scale (0 no effect, 100 complete control)
In short: (§2)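 Flooded to 3 cm at treatment time, 2-leaf plants got the test compound applied straight into the paddy water. They then stayed under constant flood in a greenhouse for 13 days. Ratings used a 0 to 100 visual scale.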

rice = test: Test B flooded paddy test; type: in vivo, Oryza sativa; settings: 250 g ai/ha, Flood, 13 days, 0 to 100 scale (0 no effect, 100 complete control)
In short: as §2

blackgrass [11] = test: Test A postemergence; type: in vivo, Alopecurus myosuroides; settings: postemergence, 10 days; for Blackgrass plant response rating: 125 g ai/ha, 0 to 100 scale, 0 no effect, 100 complete control; for Plant response rating, Blackgrass: 500 g ai/ha, visual injury, 0 to 100 scale (0 no effect, 100 complete control)
In short: as §1

oat, wild [12] = test: Test A preemergence; type: in vivo, Avena fatua
In short: as §1

kochia [13] = test: Test A preemergence; type: in vivo, Bassia scoparia
In short: as §1

barnyardgrass = test: Test B flooded paddy test; type: in vivo, Echinochloa crus-galli; settings: 250 g ai/ha, Flood, 13 days, 0 to 100 scale (0 no effect, 100 complete control)
In short: as §2

horseweed = test: Test A postemergence; type: in vivo, Erigeron canadensis; settings: postemergence, 10 days; for Horseweed plant response rating: 125 g ai/ha, 0 to 100 scale, 0 no effect, 100 complete control; for Plant response rating, Horseweed: 500 g ai/ha, visual injury, 0 to 100 scale (0 no effect, 100 complete control)
In short: as §1

foxtail, giant [14] = test: Test A preemergence; type: in vivo, Setaria faberi
In short: as §1

corn [15] = test: Test A preemergence; type: in vivo, Zea mays
In short: as §1

kochia [16] = test: Test A postemergence; type: in vivo, Bassia scoparia; settings: postemergence, 10 days; for Kochia plant response rating: 125 g ai/ha, 0 to 100 scale, 0 no effect, 100 complete control; for Plant response rating, Kochia: 500 g ai/ha, visual injury, 0 to 100 scale (0 no effect, 100 complete control)
In short: as §1

pigweed, palmer [17] = test: Test A postemergence; type: in vivo, Amaranthus palmeri; settings: postemergence, 10 days; for Pigweed, Palmer plant response rating: 125 g ai/ha, 0 to 100 scale, 0 no effect, 100 complete control; for Plant response rating, Pigweed, Palmer: 500 g ai/ha, visual injury, 0 to 100 scale (0 no effect, 100 complete control)
In short: as §1

wheat [18] = test: Test A postemergence; type: in vivo, Triticum aestivum; settings: postemergence, 10 days; for Wheat plant response rating: 125 g ai/ha, 0 to 100 scale, 0 no effect, 100 complete control; for Plant response rating, Wheat: 500 g ai/ha, visual injury, 0 to 100 scale (0 no effect, 100 complete control)
In short: as §1

goosegrass [19] = test: Test A postemergence; type: in vivo, Eleusine indica; settings: postemergence, 10 days; for Goosegrass plant response rating: 125 g ai/ha, 0 to 100 scale, 0 no effect, 100 complete control; for Plant response rating, Goosegrass: 500 g ai/ha, visual injury, 0 to 100 scale (0 no effect, 100 complete control)
In short: as §1

ryegrass, Italian [20] = test: Test A preemergence; type: in vivo, Lolium multiflorum
In short: as §1

goosegrass [21] = test: Test A preemergence; type: in vivo, Eleusine indica
In short: as §1

pigweed, palmer [22] = test: Test A preemergence; type: in vivo, Amaranthus palmeri
In short: as §1

ducksalad = test: Test B flooded paddy test; type: in vivo, Heteranthera limosa; settings: 250 g ai/ha, Flood, 13 days, 0 to 100 scale (0 no effect, 100 complete control)
In short: as §2

[23] = 125 g ai/ha, visual injury after 10 days, 0 to 100 scale, 0 is no effect, 100 is complete control
[24] = 500 g ai/ha, 0 to 100 scale (0 no effect, 100 complete control), 10 days

With `C[C@H]1CN(C(=O)c2cccc(-n3cnc(Br)n3)c2)c2cccc(Cl)c2O1` [Compound 85] the “Ragweed plant response rating” value (ragweed [1]) was 0, the “Plant response rating, Ragweed” value (ragweed [1]) was 20 and the “Plant response rating, Blackgrass” value (blackgrass [2]; [23]) was 0. For the same compound, the “Plant response rating, Blackgrass” value (blackgrass [2]; [24]) was 30, the “Foxtail, Giant plant response rating” value (foxtail, giant [3]) was 20 and the “Plant response rating, Foxtail, Giant” value (foxtail, giant [3]) was 40. The “Corn plant response rating” value (corn [4]) was 10, the “Plant response rating, Corn” value (corn [4]) was 10 and the “Oat, Wild plant response rating” value (oat, wild [5]) was 20. The “Plant response rating, Oat, Wild” value (oat, wild [5]) was 30, the “Plant response rating, Soybean” value (soybean [6]; [23]) was 0 and the “Plant response rating, Soybean” value (soybean [6]; [24]) was 0. For the same compound, the “Soybean plant response rating” value (soybean [7]) was 100, the “Plant response rating, Soybean” value (soybean [7]) was 100 and the “Plant response rating, Wheat” value (wheat [8]; [23]) was 0. The “Plant response rating, Wheat” value (wheat [8]; [24]) was 0, the “Plant response rating, Ragweed” value (ragweed [9]; [23]) was 0 and the “Plant response rating, Ragweed” value (ragweed [9]; [24]) was 0. The “Ryegrass, Italian plant response rating” value (ryegrass, Italian [10]) was 10, the “Plant response rating, Ryegrass, Italian” value (ryegrass, Italian [10]) was 70 and the “Plant response rating, Sedge, Umbrella” value (sedge, umbrella) was 0. For the same compound, the “Plant response rating, Rice” value (rice) was 0, the “Blackgrass plant response rating” value (blackgrass [11]) was 30 and the “Plant response rating, Blackgrass” value (blackgrass [11]) was 50. The “Plant response rating, Oat, Wild” value (oat, wild [12]; [23]) was 0, the “Plant response rating, Oat, Wild” value (oat, wild [12]; [24]) was 10 and the “Plant response rating, Kochia” value (kochia [13]; [23]) was 20. The “Plant response rating, Kochia” value (kochia [13]; [24]) was 80, the “Plant response rating, Barnyardgrass” value (barnyardgrass) was 0 and the “Horseweed plant response rating” value (horseweed) was 20. The “Plant response rating, Horseweed” value (horseweed) was 50, the “Plant response rating, Foxtail, Giant” value (foxtail, giant [14]; [23]) was 30 and the “Plant response rating, Foxtail, Giant” value (foxtail, giant [14]; [24]) was 90. The “Plant response rating, Corn” value (corn [15]; [23]) was 0, the “Plant response rating, Corn” value (corn [15]; [24]) was 0 and the “Kochia plant response rating” value (kochia [16]) was 60. For the same compound, the “Plant response rating, Kochia” value (kochia [16]) was 90, the “Pigweed, Palmer plant response rating” value (pigweed, palmer [17]) was 70 and the “Plant response rating, Pigweed, Palmer” value (pigweed, palmer [17]) was 80. For the same compound, the “Wheat plant response rating” value (wheat [18]) was 0, the “Plant response rating, Wheat” value (wheat [18]) was 10 and the “Goosegrass plant response rating” value (goosegrass [19]) was 0. For the same compound, the “Plant response rating, Goosegrass” value (goosegrass [19]) was 30, the “Plant response rating, Ryegrass, Italian” value (ryegrass, Italian [20]; [23]) was 90 and the “Plant response rating, Ryegrass, Italian” value (ryegrass, Italian [20]; [24]) was 90. The “Plant response rating, Goosegrass” value (goosegrass [21]; [23]) was 80, the “Plant response rating, Goosegrass” value (goosegrass [21]; [24]) was 100 and the “Plant response rating, Pigweed, Palmer” value (pigweed, palmer [22]; [23]) was 70. For the same compound, the “Plant response rating, Pigweed, Palmer” value (pigweed, palmer [22]; [24]) was 60 and the “Plant response rating, Ducksalad” value (ducksalad) was 0.
With `CCCCc1ncn(-c2cccc(C(=O)N3C[C@H](C)Oc4c(C)cccc43)c2)n1` [Compound 86] the “Ragweed plant response rating” value (ragweed [1]) was 50, the “Plant response rating, Ragweed” value (ragweed [1]) was 50 and the “Plant response rating, Blackgrass” value (blackgrass [2]; [23]) was 0. The “Plant response rating, Blackgrass” value (blackgrass [2]; [24]) was 30, the “Foxtail, Giant plant response rating” value (foxtail, giant [3]) was 10 and the “Plant response rating, Foxtail, Giant” value (foxtail, giant [3]) was 20. The “Corn plant response rating” value (corn [4]) was 0, the “Plant response rating, Corn” value (corn [4]) was 10 and the “Oat, Wild plant response rating” value (oat, wild [5]) was 0. The “Plant response rating, Oat, Wild” value (oat, wild [5]) was 10, the “Plant response rating, Soybean” value (soybean [6]; [23]) was 0 and the “Plant response rating, Soybean” value (soybean [6]; [24]) was 0. For the same compound, the “Soybean plant response rating” value (soybean [7]) was 50, the “Plant response rating, Soybean” value (soybean [7]) was 100 and the “Plant response rating, Wheat” value (wheat [8]; [23]) was 0. The “Plant response rating, Wheat” value (wheat [8]; [24]) was 10, the “Plant response rating, Ragweed” value (ragweed [9]; [23]) was 0 and the “Plant response rating, Ragweed” value (ragweed [9]; [24]) was 0. The “Ryegrass, Italian plant response rating” value (ryegrass, Italian [10]) was 10, the “Plant response rating, Ryegrass, Italian” value (ryegrass, Italian [10]) was 50 and the “Plant response rating, Sedge, Umbrella” value (sedge, umbrella) was 90. For the same compound, the “Plant response rating, Rice” value (rice) was 0, the “Blackgrass plant response rating” value (blackgrass [11]) was 0 and the “Plant response rating, Blackgrass” value (blackgrass [11]) was 30. The “Plant response rating, Oat, Wild” value (oat, wild [12]; [23]) was 0, the “Plant response rating, Oat, Wild” value (oat, wild [12]; [24]) was 80 and the “Plant response rating, Kochia” value (kochia [13]; [23]) was 60. The “Plant response rating, Kochia” value (kochia [13]; [24]) was 70, the “Plant response rating, Barnyardgrass” value (barnyardgrass) was 0 and the “Horseweed plant response rating” value (horseweed) was 0. The “Plant response rating, Horseweed” value (horseweed) was 0, the “Plant response rating, Foxtail, Giant” value (foxtail, giant [14]; [23]) was 0 and the “Plant response rating, Foxtail, Giant” value (foxtail, giant [14]; [24]) was 70. For the same compound, the “Plant response rating, Corn” value (corn [15]; [23]) was 0, the “Plant response rating, Corn” value (corn [15]; [24]) was 20 and the “Kochia plant response rating” value (kochia [16]) was 50. For the same compound, the “Plant response rating, Kochia” value (kochia [16]) was 90, the “Pigweed, Palmer plant response rating” value (pigweed, palmer [17]) was 20 and the “Plant response rating, Pigweed, Palmer” value (pigweed, palmer [17]) was 40. The “Wheat plant response rating” value (wheat [18]) was 10, the “Plant response rating, Wheat” value (wheat [18]) was 20 and the “Goosegrass plant response rating” value (goosegrass [19]) was 10. For the same compound, the “Plant response rating, Goosegrass” value (goosegrass [19]) was 50, the “Plant response rating, Ryegrass, Italian” value (ryegrass, Italian [20]; [23]) was 70 and the “Plant response rating, Ryegrass, Italian” value (ryegrass, Italian [20]; [24]) was 100. The “Plant response rating, Goosegrass” value (goosegrass [21]; [23]) was 60, the “Plant response rating, Goosegrass” value (goosegrass [21]; [24]) was 90 and the “Plant response rating, Pigweed, Palmer” value (pigweed, palmer [22]; [23]) was 20. The “Plant response rating, Pigweed, Palmer” value (pigweed, palmer [22]; [24]) was 90 and the “Plant response rating, Ducksalad” value (ducksalad) was 65.

Source: patent US20260262643A1, “HERBICIDAL BENZOXAZINES” (FMC CORPORATION, priority 2022, published 2026)
